The supplement of paper PMC10331698
± gives the standard deviation of the averaged measurements.

Legend:
Assay in all cases: level (log10 ratio to DMSO vehicle control); higher = higher biomarker level / cell amount than vehicle control
[1] = compound: CCOC(=O)CC(=O)C(F)(F)C(F)(F)F [Ethyl pentafluoropropionyl acetate] (in DMSO)
Protocol: (§1)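 BioMAP Diversity Plus panel of 12 human primary cell co-culture systems (3C, 4H, LPS, SAg, BT, BF4T, BE3C, CASM3C, HDF3CGF, KF3CT, MyoF, Mphg). Compounds were added 1 h before stimulation and left for 24 h (MyoF 48 h; BT 72 h for soluble read-outs or 6 d for IgG). Biomarkers were read by ELISA, cytotoxicity by SRB, PBMC viability and proliferation by Alamar Blue. Each well value was divided by the mean of 8 DMSO control wells on the same plate and log10 transformed; duplicate blinded samples were tested at 4 concentrations.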

[2] = compound: O=C(O)C(F)(OC(F)(F)C(F)(F)C(F)(F)F)C(F)(F)F [Ammonium perfluoro-2-methyl-3-oxahexanoate] (in Water)
Protocol: as §1

[3] = compound: CN(C(=O)C(F)(F)C(F)(F)C(F)(F)F)[Si](C)(C)C [N-Methyl-N-trimethylsilylheptafluorobutyramide] (in DMSO)
Protocol: as §1

[4] = compound: O=C(O)CCC(F)(C(F)(F)F)C(F)(F)F [4,4-bis(Trifluoromethyl)-4-fluoropropanoic acid] (in DMSO)
Protocol: as §1

[5] = compound: OCC(F)(F)OC(F)(F)C(F)(F)OC(F)(F)C(F)(F)OC(F)(F)CO [1H,1H,11H,11H-Perfluorotetraethylene glycol] (in DMSO)
Protocol: as §1

Perfluorononanoic acid = compound: O=C(O)C(F)(F)C(F)(F)C(F)(F)C(F)(F)C(F)(F)C(F)(F)C(F)(F)C(F)(F)F [Perfluorononanoic acid] (in DMSO)
Protocol: as §1

Row | Test System | level (log10) ([1]; 6700 nM) | level (log10) ([1]; 20000 nM) | level (log10) ([1]; 60000 nM) | level (log10) ([2]; 6700 nM) | level (log10) ([2]; 20000 nM) | level (log10) ([2]; 60000 nM) | level (log10) ([3]; 6700 nM) | level (log10) ([3]; 20000 nM) | level (log10) ([3]; 60000 nM) | level (log10) ([4]; 6700 nM) | level (log10) ([4]; 20000 nM) | level (log10) ([4]; 60000 nM) | level (log10) ([5]; 6700 nM) | level (log10) ([5]; 20000 nM) | level (log10) ([5]; 60000 nM) | level (log10) (Perfluorononanoic acid; 6700 nM) | level (log10) (Perfluorononanoic acid; 20000 nM)
1 | 3C:CD87/uPAR | 0.011 ± 0.0042 | 0.0075 ± 0.00071 | -0.003 ± 0.011 | -0.016 ± 0.054 | -0.0085 ± 0.028 | -0.042 ± 0.021 | -0.0105 ± 0.0021 | -0.0155 ± 0.0078 | -0.007 ± 0.0042 | 0.051 ± 0.0057 | 0.0265 ± 0.0078 | 0.0295 ± 0.044 | 0.008 ± 0.03 | -0.007 ± 0.023 | -0.0005 ± 0.011 | 0.002 ± 0.011 | -0.018 ± 0.016
2 | 3C:CXCL8/IL-8 | -0.0105 ± 0.0092 | -0.006 ± 0.0071 | 0.022 ± 0.031 | 0.038 ± 0.037 | 0.0745 ± 0.029 | 0.131 ± 0.014 | -0.016 ± 0.0071 | -0.017 ± 0.0042 | 0.007 ± 0.017 | 0.0215 ± 0.039 | 0.014 ± 0.055 | 0.0285 ± 0.054 | 0.003 ± 0.025 | -0.009 ± 0.0099 | -0.0045 ± 0.0035 | 0.0175 ± 0.0021 | 0.0475 ± 0.013
3 | 3C:CXCL9/MIG | 0.001 ± 0.0028 | -0.0015 ± 0.0092 | 0.0025 ± 0.0078 | -0.0085 ± 0.011 | -0.003 ± 0.0099 | -0.004 | -0.0045 ± 0.0035 | -0.0005 ± 0.0035 | 0.0065 ± 0.0092 | 0.006 ± 0.0071 | -0.0075 ± 0.0035 | 0.0015 ± 0.0064 | 0.0095 ± 0.022 | 0.0065 ± 0.026 | 0.012 ± 0.0028 | -0.0085 ± 0.0064 | 0.0045 ± 0.0064
4 | 3C:HLA-DR | 0.019 ± 0.0099 | 0.0125 ± 0.054 | 0.01 ± 0.047 | 0.0075 ± 0.011 | 0.0175 ± 0.028 | 0.016 ± 0.0014 | 0.0015 ± 0.015 | 0.0045 ± 0.012 | 0.0285 ± 0.033 | -0.0125 ± 0.023 | -0.0085 ± 0.012 | -0.0065 ± 0.0035 | -0.0055 ± 0.049 | -0.001 ± 0.023 | -0.047 ± 0.028 | -0.024 ± 0.033 | 0.017 ± 0.021
5 | 3C:Proliferation | -0.0145 ± 0.043 | -0.033 ± 0.011 | -0.0135 ± 0.026 | -0.0765 ± 0.015 | -0.136 ± 0.031 | -0.149 ± 0.023 | -0.0305 ± 0.0092 | 0.003 ± 0.027 | -0.005 ± 0.0057 | -0.05 ± 0.051 | -0.015 ± 0.058 | 0.0345 ± 0.03 | -0.04 ± 0.067 | -0.116 ± 0.061 | -0.248 ± 0.049 | 0.0095 ± 0.073 | 0.0795 ± 0.03
6 | 3C:SRB | 0.006 ± 0.0085 | 0.007 ± 0.0085 | 0.01 ± 0.034 | -0.019 ± 0.011 | -0.021 ± 0.0042 | -0.045 | 0.0135 ± 0.013 | 0.0035 ± 0.032 | 0.0075 ± 0.011 | -0.001 ± 0.0057 | 0.0045 ± 0.019 | 0.0125 ± 0.0078 | 0.003 ± 0.0071 | -0.0185 ± 0.013 | -0.079 ± 0.033 | -0.002 ± 0.0042 | -0.003
7 | 4H:CCL2/MCP-1 | -0.0235 ± 0.029 | -0.0455 ± 0.064 | -0.008 ± 0.1 | 0.0005 ± 0.029 | 0.007 ± 0.037 | 0.008 ± 0.051 | -0.0405 ± 0.028 | -0.0525 ± 0.039 | 0.0195 ± 0.11 | 0.016 ± 0.024 | 0.0275 ± 0.03 | 0.023 ± 0.047 | -0.0525 ± 0.029 | -0.126 ± 0.0071 | -0.196 ± 0.027 | -0.074 ± 0.013 | -0.0405 ± 0.005
8 | 4H:CCL26/Eotaxin-3 | -0.007 ± 0.024 | 0.006 ± 0.0085 | -0.019 ± 0.018 | -0.0615 ± 0.0021 | -0.064 ± 0.0014 | -0.118 ± 0.012 | -0.0005 ± 0.005 | -0.001 | -0.003 ± 0.024 | -0.0225 ± 0.0064 | 0.006 ± 0.033 | -0.0015 ± 0.049 | -0.0255 ± 0.0064 | -0.017 ± 0.044 | 0.0375 ± 0.028 | -0.008 ± 0.0071 | -0.03 ± 0.018
9 | 4H:CD62P/P-selectin | 0.005 | -0.012 ± 0.038 | 0.009 ± 0.013 | -0.0475 ± 0.012 | -0.0065 ± 0.03 | -0.054 ± 0.048 | -0.0065 ± 0.067 | -0.011 ± 0.052 | 0.002 ± 0.047 | -0.0155 ± 0.022 | -0.032 ± 0.031 | 0.005 ± 0.086 | -0.0065 ± 0.035 | -0.0155 ± 0.018 | -0.0055 ± 0.0078 | 0.015 ± 0.0099 | 0.0605 ± 0.011
10 | 4H:CD87/uPAR | -0.0055 ± 0.0064 | -0.0585 ± 0.07 | -0.0565 ± 0.13 | -0.033 ± 0.027 | -0.024 ± 0.033 | -0.06 ± 0.0014 | 0.011 ± 0.021 | 0.0135 ± 0.016 | 0.0055 ± 0.019 | -0.0095 ± 0.056 | 0.0235 ± 0.035 | 0.0275 ± 0.067 | 0.001 ± 0.082 | -0.0065 ± 0.053 | 0.0315 ± 0.012 | -0.0245 ± 0.026 | -0.012 ± 0.0071
11 | 4H:CD106/VCAM-1 | -0.003 ± 0.034 | 0.03 ± 0.018 | 0.0215 ± 0.013 | -0.0455 ± 0.005 | -0.0365 ± 0.018 | -0.037 ± 0.021 | -0.011 | -0.0305 ± 0.049 | -0.023 ± 0.065 | -0.014 ± 0.0042 | -0.004 | -0.0205 ± 0.022 | 0.0345 ± 0.011 | -0.016 ± 0.011 | -0.078 ± 0.016 | -0.0245 ± 0.032 | -0.029 ± 0.0071
12 | 4H:SRB | 0.0055 ± 0.005 | 0.0045 ± 0.012 | 0.0015 ± 0.028 | -0.0075 ± 0.012 | -0.018 ± 0.014 | -0.0115 ± 0.005 | 0.005 ± 0.0085 | 0.0055 ± 0.022 | -0.003 ± 0.011 | -0.008 | -0.0125 ± 0.011 | 0.014 ± 0.02 | -0.0045 ± 0.013 | -0.032 ± 0.023 | -0.0795 ± 0.037 | 0.002 ± 0.0014 | -0.008 ± 0.0042
13 | 4H:VEGFR2 | -0.0375 ± 0.036 | -0.0265 ± 0.06 | -0.022 ± 0.15 | 0.0035 ± 0.04 | 0.007 ± 0.014 | 0.0095 ± 0.018 | 0.006 ± 0.0057 | 0.003 ± 0.0099 | 0.019 ± 0.042 | 0.0265 ± 0.054 | 0.0195 ± 0.044 | 0.03 ± 0.045 | 0.008 ± 0.042 | 0.003 ± 0.05 | 0.07 ± 0.051 | -0.0565 ± 0.039 | -0.033 ± 0.0099
14 | BE3C:CD54/ICAM-1 | 0.0175 ± 0.011 | 0.0185 ± 0.018 | 0.006 ± 0.0042 | -0.007 ± 0.0057 | -0.0025 ± 0.0035 | -0.016 | -0.0005 ± 0.005 | 0.0045 ± 0.0064 | 0.001 ± 0.0028 | -0.007 | -0.019 ± 0.014 | -0.002 ± 0.0099 | -0.004 ± 0.011 | 0.012 ± 0.0099 | -0.048 ± 0.0099 | -0.004 ± 0.034 | 0.0095 ± 0.0035
15 | BE3C:CD87/uPAR | 0.0145 ± 0.03 | -0.0045 ± 0.023 | 0.0065 ± 0.03 | 0.011 ± 0.034 | 0.0215 ± 0.0078 | 0.027 ± 0.0085 | 0.0055 ± 0.016 | 0.0275 ± 0.019 | 0.0275 ± 0.026 | 0.0005 ± 0.028 | -0.004 ± 0.044 | -0.01 ± 0.0028 | 0.0025 ± 0.0078 | 0.01 ± 0.0071 | -0.0355 ± 0.0078 | 0.046 ± 0.013 | 0.0495 ± 0.019
16 | BE3C:CXCL8/IL-8 | 0.0095 ± 0.03 | 0.017 ± 0.021 | 0.032 ± 0.0014 | -0.013 ± 0.071 | 0.0005 ± 0.011 | 0.0195 ± 0.011 | 0.019 ± 0.054 | 0.0175 ± 0.061 | 0.055 ± 0.11 | -0.0055 ± 0.011 | -0.025 ± 0.033 | -0.019 ± 0.033 | -0.0165 ± 0.0035 | -0.071 ± 0.033 | -0.0405 ± 0.056 | -0.03 ± 0.0057 | -0.175 ± 0.0042
17 | BE3C:CXCL9/MIG | 0.001 ± 0.0099 | 0.001 ± 0.0028 | 0.006 ± 0.0028 | 0.0065 ± 0.013 | 0.0045 ± 0.005 | 0 ± 0.0042 | 0.0065 ± 0.018 | 0.0005 ± 0.00071 | 0.004 ± 0.027 | -0.01 ± 0.014 | -0.0085 ± 0.022 | -0.0135 ± 0.016 | -0.005 ± 0.0042 | 0.004 ± 0.0071 | -0.0355 ± 0.015 | -0.019 ± 0.013 | -0.0195 ± 0.0021
